From patent US20170340636A1, “COMPOSITIONS AND METHODS FOR INHIBITION OF AUTOPHAGY” (Board of Regents, The University of Texas System, priority 2016, published 2017)
Entries after “also recorded” stand apart in the source; their conditions may differ.

Legend:
TAOK2 = biological target: T1, TAOK2 (Rattus norvegicus, UniProt Q9JLS3); test: Differential scanning fluorimetry (DSF) binding assay against TAOK2; conditions: DSF melt temperature shift of TAOK2, 5 μM TAOK2, compound 1 μM
T1 construct: made in house
T1 sequence (Q9JLS3 1-320 limits assumed): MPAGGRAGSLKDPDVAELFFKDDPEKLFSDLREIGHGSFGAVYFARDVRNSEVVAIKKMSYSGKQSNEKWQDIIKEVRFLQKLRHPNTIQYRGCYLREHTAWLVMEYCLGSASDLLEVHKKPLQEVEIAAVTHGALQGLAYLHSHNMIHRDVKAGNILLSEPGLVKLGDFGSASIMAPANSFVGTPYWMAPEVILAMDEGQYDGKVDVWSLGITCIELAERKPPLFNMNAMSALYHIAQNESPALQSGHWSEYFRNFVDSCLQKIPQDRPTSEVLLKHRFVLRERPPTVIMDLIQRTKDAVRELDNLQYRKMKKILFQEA
Description: (§1) Differential scanning fluorimetry binding assays of selected compounds against TAOK2 were conducted to measure strength of compound binding. A solution of 5 μM TAOK2, 50 mM MgCl2, 50 mM HEPES pH 7.5, and 2.5x SyproOrange(Life Technologies) was made. Compound was added to a final concentration of 1 μM. 25 μl of the reaction solution was added to the wells of a Biorad Multiplate 96 wellclear PCR plate. The plate was covered with a Biorad Microseal ‘B’ seal. Plates were read in a Biorad CFX96 Real-Time PCR system. The temperature was increased from 4° C. to 80° C., with fluorescence measurements being taken every 0.5° C. in the 6-FAM Fluorescein channel. The fluorescence response to heat curve was fit to a binding isotherm in order to determine the inflection point, which was taken as the melt temperature (Tm).
The prevalence of multiple heterocycles in the compounds is reflective of the composition of the screen (described in Methods in Supplemental Material). These 13 compounds were purchased from Chembridge Inc. and ChemDiv Inc. for measurement of direct binding using Differential Scanning Fluorimetry (DSF). DSF measures protein melt temperature (Tm) with a lipophilic dye (SyproOrange). As the temperature of the solution is increased, measurements of dye fluorescence are taken. When the protein begins to denature, hydrophobic regions in the protein are exposed, and the dye is able to bind. This binding insulates the dye from the surrounding water, reducing quenching effects and allowing fluorescence. Binding of small molecules to protein has a stabilizing effect, and this is seen by an increase in melt temperature (Table 1). The ΔTm values ranged from 3.0 to −0.6° C. The three compounds with the highest positive shifts were SW034538, SW163112, and SW083688, with 3° C., 2.2° C., and 2° C. shifts, respectively.

U2OS GFP-LC3 cells [1] = test: p62 accumulation by western blot (autophagic flux); type: cell-based, human; conditions: 50 μM, 24 hours
Description: (§2) FIG. 4A) U2OS cells stably expressing the GFP-LC3 fusion transgene were treated with the indicated compound at 50 μM concentration for 24 hours before GFP fluorescence was measured by flow cytometry. The median fluorescent value from 20,000 cells per condition was normalized to that of vehicle alone (DMSO) within a given experiment. The mean+SD of >2 independent experiments is shown. ****, p<0.0001; ***, p<0.001; **, p<0.01; ns, p>0.05 versus vehicle alone (DMSO) by unpaired t test. FIG. 4B) TAOK2 inhibitors induce accumulation of p62. U2OS GFP-LC3 cells were treated with the indicated compounds at 50 μM concentration, or DMSO alone, for 24 hours. Lysates were collected and analyzed by western blot using the indicated antibodies. XPB was used as a loading control.
U2OS GFP-LC3 cells were seeded in 6-well plates at 150,000 cells per well in Dulbecco's Modified Eagle Medium supplemented with 10% fetal bovine serum. Twenty-four hours after seeding, the indicated compounds were added to a final concentration of 50 µM, or an equivalent volume of vehicle alone (DMSO) was added. Twenty-four hours after compound addition, cells were rinsed twice with PBS and then lysed in 2× sample buffer. Lysates were boiled for 5 minutes, sonicated to shear DNA, separated by SDS-PAGE, and transferred to PVDF membranes (Biorad). The membranes were blocked in 5% milk in TBS-T (Tris-Buffered-Saline, Tween 20) for one hour at room temperature and then incubated with primary antibody in blocking solution overnight at 4° C. Membranes were then washed, incubated with secondary antibody in blocking solution, washed again, and analyzed by enhanced chemiluminescence followed by exposure to film.
(§3) Degradation of the autophagy scaffold and LC3 binding protein p62 is a second marker of autophagic flux. p62 degradation was assayed by Western blotting (FIG. 4B).

U2OS GFP-LC3 cells [2] = test: GFP-LC3 accumulation by flow cytometry (autophagic flux); type: cell-based, human; conditions: 50 μM, 24 hours
Description: as §2
U2OS GFP-LC3 cells were seeded in 6-well plates at 150,000 cells per well in Dulbecco's Modified Eagle Medium supplemented with 10% fetal bovine serum. Twenty-four hours after seeding, the indicated compounds were added to a final concentration of 50 μM, or an equivalent volume of vehicle alone (DMSO) was added. Twenty-four hours after compound addition, cells were rinsed with PBS (Phosphate-Buffered Saline) and analyzed by flow cytometry using a FACS Calibur (BD Biosciences) to measure media GFP fluorescence per cell.
It had previously been determined that TAOK2 is required for autophagic flux in cancer cells. siRNA targeting TAOK2 elicited an expression response similar to siRNA targeting known autophagy genes, such as ULK1, a protein kinase involved in mTOR and AMPK signaling, in the human colon cancer cell line HCT116. TAOK2 depletion also impaired autophagic flux in human osteosarcoma cell line U2OS engineered to stably express the autophagy marker 1A/1B-light chain 3 fused to GFP (GFP-LC3), a microtubule associated protein.
as §3

p38 = p38 (Homo sapiens, UniProt Q16539); test: DSF against p38 (selectivity panel of MAPK cascade members); type: binding; conditions: difference between the TAOK2 ΔTm and that of p38, DSF
Chain of p38 (Q16539 whole entry): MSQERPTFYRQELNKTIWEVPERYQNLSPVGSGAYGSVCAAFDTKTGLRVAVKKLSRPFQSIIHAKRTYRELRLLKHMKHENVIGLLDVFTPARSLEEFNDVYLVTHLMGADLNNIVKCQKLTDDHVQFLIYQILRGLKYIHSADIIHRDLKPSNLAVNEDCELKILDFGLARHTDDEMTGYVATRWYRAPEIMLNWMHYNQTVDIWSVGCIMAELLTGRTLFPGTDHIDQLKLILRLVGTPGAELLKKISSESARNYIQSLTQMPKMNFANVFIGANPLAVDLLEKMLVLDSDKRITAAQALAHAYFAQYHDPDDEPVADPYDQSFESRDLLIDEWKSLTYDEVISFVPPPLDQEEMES
Description: as §1
(§4) The difference between the TAOK2 ΔTm and that of p38 and ASK1 was determined. […] The majority of the other compounds were also preferentially inhibitory toward TAOK2. Of the 13 compounds, SW034538, SW172006 and SW083688 were cross-verified for selectivity by performing a specificity screen against 45 kinases commercially at Eurofins Cerep, Inc. (FIG. 3).

45 off-target kinases = test: Specificity screen against 45 kinases (Eurofins Cerep); type: biochemical; conditions: inhibition higher than 50% considered significant
Description: Of the 13 inhibitors, 3 were tested for cross-reactivity against 45 off-target kinases.
as §4

Structure (SMILES) | ΔTm at 1 µM (TAOK2) | abundance of p62 (U2OS GFP-LC3 cells [1]) | impairment of autophagic flux (accumulation of GFP-LC3) (U2OS GFP-LC3 cells [2]) | ΔΔTm (p38) (p38) | specificity toward TAOK2 in screen against 45 kinases (45 off-target kinases)
CCC(=O)Nc1nc(C)c(-c2csc(Nc3cc(OC)ccc3OC)n2)s1 [SW034538] | 3 °C | did not appear to increase the appearance of p62 | showing inhibition; also recorded: effective | 2.8 °C | cross-reactivity with respect to six of the 45 kinases
CS(=O)(=O)c1ccc2nc(NC(=O)CCCOc3ccc(Cl)cc3)sc2c1 [SW172006] | 1.3 °C | increased the abundance of p62 | effective | 2.0 °C | highly specific toward TAOK2
CCOCCCn1c(=S)[nH]c2cc(C(=O)NCC3COc4ccccc4O3)ccc2c1=O (stereo not drawn) [SW083688] | 2 °C | increased the abundance of p62 | effective | 2.0 °C | highly specific toward TAOK2
